Measured values as given in PubChem BioAssay (NCI).
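Protocol summary: plate cells (96-well), add compound at 5 concentrations, incubate 48 h, interpolate endpoints linearly. GI50 is the concentration that inhibits growth by half. TGI is the concentration that stops growth completely.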

Tests used:
Assay in all cases: NCI-60 cell line screen, 48 h
[1] = tested on: T-47D breast
[2] = tested on: NCI/ADR-RES ovarian
[3] = tested on: HL-60(TB) leukemia
[4] = tested on: HS 578T breast
[5] = tested on: SNB-75 CNS
[6] = tested on: KM12 colon
[7] = tested on: NCI-H522 lung
[8] = tested on: IGROV1 ovarian
[9] = tested on: 786-0 renal
[10] = tested on: SR leukemia
[11] = tested on: MDA-MB-435
[12] = tested on: U251 CNS
[13] = tested on: HOP-62 NSCLC
[14] = tested on: A498 renal
[15] = tested on: DU-145 prostate
[16] = tested on: LOX IMVI melanoma
[17] = tested on: SF-295 CNS
[18] = tested on: OVCAR-4 ovarian
[19] = tested on: PC-3 prostate
[20] = tested on: SNB-19 CNS
[21] = tested on: SK-MEL-2 melanoma
[22] = tested on: HOP-92 NSCLC
[23] = tested on: RXF 393 renal
[24] = tested on: MDA-MB-231 breast
[25] = tested on: SF-268 CNS
[26] = tested on: M14 melanoma
[27] = tested on: SK-OV-3 ovarian
[28] = tested on: NCI-H460 lung
[29] = tested on: MCF7 breast
[30] = tested on: BT-549 breast
[31] = tested on: COLO 205 colon
[32] = tested on: UO-31 renal
[33] = tested on: UACC-257 melanoma
[34] = tested on: SK-MEL-28 melanoma
[35] = tested on: CCRF-CEM leukemia
[36] = tested on: K-562 leukemia
[37] = tested on: NCI-H226 lung
[38] = tested on: TK-10 renal
[39] = tested on: SK-MEL-5 melanoma
[40] = tested on: HCT-15 colon
[41] = tested on: RPMI-8226 leukemia
[42] = tested on: NCI-H23 lung
[43] = tested on: OVCAR-8 ovarian
[44] = tested on: SF-539 CNS
[45] = tested on: SN12C renal
[46] = tested on: HT29 colon
[47] = tested on: MOLT-4 leukemia
[48] = tested on: HCT-116 colon
[49] = tested on: UACC-62 melanoma
[50] = tested on: EKVX NSCLC
[51] = tested on: HCC-2998 colon
[52] = tested on: MALME-3M melanoma
[53] = tested on: CAKI-1 renal
[54] = tested on: A549 NSCLC
[55] = tested on: ACHN renal
[56] = tested on: OVCAR-3 ovarian
[57] = tested on: OVCAR-5 ovarian

Q: How did the GI50 [1] turn out when CCNC(=O)c1ccc2c(c1)nc(-c1ccc(Cl)cc1)n2-c1cc(C(C)(C)C)[nH]n1 was run?
A: 3.99 µM

Q: What about the TGI [1] of the same molecule?
A: > 100 µM

Q: What about the GI50 [2] of the same molecule?
A: 2.54 µM

Q: And the TGI [2]?
A: 9.33 µM

Q: What about the GI50 [3] of the same molecule?
A: 2.72 µM

Q: And the TGI [3]?
A: 7.6 µM

Q: What about the GI50 [4] of the same molecule?
A: 2.58 µM

Q: What about the TGI [4] of the same molecule?
A: 7.6 µM

Q: And the GI50 [5]?
A: 2.17 µM

Q: What about the TGI [5] of the same molecule?
A: 12 µM

Q: And the GI50 [6]?
A: 3.12 µM

Q: What about the TGI [6] of the same molecule?
A: 36.8 µM

Q: What about the GI50 [7] of the same molecule?
A: 2.7 µM

Q: What about the TGI [7] of the same molecule?
A: 9.6 µM

Q: What about the GI50 [8] of the same molecule?
A: 5.22 µM

Q: What about the TGI [8] of the same molecule?
A: 64.8 µM

Q: What about the GI50 [9] of the same molecule?
A: 3.48 µM

Q: And the TGI [9]?
A: 47.4 µM

Q: And the GI50 [10]?
A: 1.06 µM

Q: What about the TGI [10] of the same molecule?
A: 9.32 µM

Q: What about the GI50 [11] of the same molecule?
A: 1.09 µM

Q: What about the TGI [11] of the same molecule?
A: 5.35 µM

Q: What about the GI50 [12] of the same molecule?
A: 3.28 µM

Q: And the TGI [12]?
A: 12.2 µM

Q: And the GI50 [13]?
A: 5.41 µM

Q: And the TGI [13]?
A: 36.2 µM

Q: What about the GI50 [14] of the same molecule?
A: 2.24 µM

Q: What about the TGI [14] of the same molecule?
A: 6.53 µM

Q: What about the GI50 [15] of the same molecule?
A: 3.72 µM

Q: What about the TGI [15] of the same molecule?
A: 34.9 µM

Q: And the GI50 [16]?
A: 3.54 µM

Q: And the TGI [16]?
A: 14.4 µM

Q: What about the GI50 [17] of the same molecule?
A: 2.82 µM

Q: What about the TGI [17] of the same molecule?
A: 11.6 µM

Q: And the GI50 [18]?
A: 5.43 µM

Q: What about the TGI [18] of the same molecule?
A: > 100 µM

Q: What about the GI50 [19] of the same molecule?
A: 2.87 µM

Q: What about the TGI [19] of the same molecule?
A: 48.8 µM

Q: And the GI50 [20]?
A: 3.97 µM

Q: And the TGI [20]?
A: > 100 µM

Q: And the GI50 [21]?
A: 2.81 µM

Q: And the TGI [21]?
A: 8.15 µM

Q: What about the GI50 [22] of the same molecule?
A: 1.36 µM

Q: What about the TGI [22] of the same molecule?
A: 7.77 µM

Q: What about the GI50 [23] of the same molecule?
A: 1.81 µM

Q: And the TGI [23]?
A: 5.55 µM

Q: What about the GI50 [24] of the same molecule?
A: 5.56 µM

Q: And the TGI [24]?
A: 28.5 µM

Q: And the GI50 [25]?
A: 3.42 µM

Q: What about the TGI [25] of the same molecule?
A: 15.4 µM

Q: And the GI50 [26]?
A: 2.97 µM

Q: And the TGI [26]?
A: 10.8 µM

Q: And the GI50 [27]?
A: 3.6 µM

Q: And the TGI [27]?
A: 17.3 µM

Q: And the GI50 [28]?
A: 3.53 µM

Q: And the TGI [28]?
A: 12.5 µM

Q: And the GI50 [29]?
A: 2.68 µM

Q: And the TGI [29]?
A: 10.5 µM

Q: What about the GI50 [30] of the same molecule?
A: 4.53 µM

Q: And the TGI [30]?
A: 18.2 µM

Q: What about the GI50 [31] of the same molecule?
A: 3.5 µM

Q: What about the TGI [31] of the same molecule?
A: 14.4 µM

Q: What about the GI50 [32] of the same molecule?
A: 3.46 µM

Q: What about the TGI [32] of the same molecule?
A: 44.5 µM

Q: What about the GI50 [33] of the same molecule?
A: 3.59 µM

Q: And the TGI [33]?
A: 30.5 µM

Q: What about the GI50 [34] of the same molecule?
A: 2.78 µM

Q: And the TGI [34]?
A: 11.7 µM

Q: And the GI50 [35]?
A: 2.94 µM

Q: What about the TGI [35] of the same molecule?
A: 40.7 µM

Q: And the GI50 [36]?
A: 3.35 µM

Q: What about the TGI [36] of the same molecule?
A: 16.8 µM

Q: And the GI50 [37]?
A: 2.56 µM

Q: What about the TGI [37] of the same molecule?
A: 9.24 µM

Q: And the GI50 [38]?
A: 6.14 µM

Q: And the TGI [38]?
A: 71.3 µM

Q: And the GI50 [39]?
A: 1.54 µM

Q: And the TGI [39]?
A: 5.72 µM

Q: And the GI50 [40]?
A: 3.26 µM

Q: And the TGI [40]?
A: 18 µM

Q: And the GI50 [41]?
A: 2.84 µM

Q: What about the TGI [41] of the same molecule?
A: 14.1 µM

Q: And the GI50 [42]?
A: 2.78 µM

Q: What about the TGI [42] of the same molecule?
A: 20.3 µM

Q: What about the GI50 [43] of the same molecule?
A: 3.06 µM

Q: And the TGI [43]?
A: 13.4 µM

Q: And the GI50 [44]?
A: 3 µM

Q: What about the TGI [44] of the same molecule?
A: 11 µM

Q: What about the GI50 [45] of the same molecule?
A: 3.79 µM

Q: And the TGI [45]?
A: 70 µM

Q: What about the GI50 [46] of the same molecule?
A: 3.13 µM

Q: What about the TGI [46] of the same molecule?
A: 9.71 µM

Q: What about the GI50 [47] of the same molecule?
A: 3.49 µM

Q: What about the TGI [47] of the same molecule?
A: 25.1 µM

Q: What about the GI50 [48] of the same molecule?
A: 3.17 µM

Q: And the TGI [48]?
A: 12.3 µM

Q: And the GI50 [49]?
A: 2.05 µM

Q: What about the TGI [49] of the same molecule?
A: 7.61 µM

Q: What about the GI50 [50] of the same molecule?
A: 3.14 µM

Q: What about the TGI [50] of the same molecule?
A: > 100 µM

Q: And the GI50 [51]?
A: 3.96 µM

Q: What about the TGI [51] of the same molecule?
A: 26.7 µM

Q: What about the GI50 [52] of the same molecule?
A: 3.47 µM

Q: And the TGI [52]?
A: 17.2 µM

Q: What about the GI50 [53] of the same molecule?
A: 2.84 µM

Q: What about the TGI [53] of the same molecule?
A: 46.6 µM

Q: What about the GI50 [54] of the same molecule?
A: 3.19 µM

Q: And the TGI [54]?
A: 31.9 µM

Q: What about the GI50 [55] of the same molecule?
A: 3.48 µM

Q: What about the TGI [55] of the same molecule?
A: 13.2 µM

Q: What about the GI50 [56] of the same molecule?
A: 2.49 µM

Q: What about the TGI [56] of the same molecule?
A: 7.77 µM

Q: What about the GI50 [57] of the same molecule?
A: 5.91 µM

Q: And the TGI [57]?
A: 40.1 µM
